Experimental findings from patent US20090306137A1, “TREATMENT FOR DEPRESSIVE DISORDERS” (priority 2006, published 2009) are described below.

For assay [1], the target named is T1, 5-HT1A (Homo sapiens, UniProt P08908).
T1 sequence (P08908 1-422): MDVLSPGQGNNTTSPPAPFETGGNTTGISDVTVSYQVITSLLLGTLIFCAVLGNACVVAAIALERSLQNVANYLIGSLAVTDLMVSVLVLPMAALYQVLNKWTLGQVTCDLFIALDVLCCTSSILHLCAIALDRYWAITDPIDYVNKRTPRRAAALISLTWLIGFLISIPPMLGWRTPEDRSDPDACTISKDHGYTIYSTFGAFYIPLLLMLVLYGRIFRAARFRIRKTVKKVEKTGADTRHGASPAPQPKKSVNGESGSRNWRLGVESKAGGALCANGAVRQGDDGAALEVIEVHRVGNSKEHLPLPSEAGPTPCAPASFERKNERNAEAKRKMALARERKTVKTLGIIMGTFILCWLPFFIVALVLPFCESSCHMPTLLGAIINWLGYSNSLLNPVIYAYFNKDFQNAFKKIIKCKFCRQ
The experiment in a line: receptor affinity. The format is binding. As to conditions: listed both as high and as moderate affinity.

Assay [2] has as its target D3 (Homo sapiens, UniProt P35462). Put plainly: receptor affinity. Type of assay: binding. As to conditions: high affinity.
Assay [3] addresses T2, Nea2c (Homo sapiens, UniProt P18825).
T2 sequence (P18825 1-462): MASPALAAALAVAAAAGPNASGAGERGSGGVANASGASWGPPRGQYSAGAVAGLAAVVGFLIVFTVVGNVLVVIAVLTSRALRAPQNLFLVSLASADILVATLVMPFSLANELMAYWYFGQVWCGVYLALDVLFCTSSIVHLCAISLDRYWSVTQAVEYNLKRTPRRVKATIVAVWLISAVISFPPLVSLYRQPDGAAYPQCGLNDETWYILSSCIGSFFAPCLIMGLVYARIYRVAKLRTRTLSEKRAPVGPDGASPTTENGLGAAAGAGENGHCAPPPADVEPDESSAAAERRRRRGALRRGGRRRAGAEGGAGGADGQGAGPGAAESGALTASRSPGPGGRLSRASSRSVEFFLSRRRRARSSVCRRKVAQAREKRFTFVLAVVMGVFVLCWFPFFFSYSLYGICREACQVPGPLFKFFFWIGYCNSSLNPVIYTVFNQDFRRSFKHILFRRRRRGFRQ
Put plainly: receptor affinity. Type of assay: binding. As to conditions: high affinity.

Assay [4] addresses other dopaminergic, adrenergic, and serotoninergic receptors. The experiment in a line: receptor affinity. The format is binding. To be noted: moderate affinity.
The subject of assay [5] is selected dopaminergic, serotoninergic, and adrenergic receptors. The experiment in a line: functional action at receptors. The format is biochemical.
Assay [6] concerns the target Nea1. Put plainly: receptor affinity. The format is binding. As to conditions: high affinity.

“And” between values parts separate entries of the source, which are not always exact repeats. Identical values can stand only once.

D3, sequence (P35462 whole entry): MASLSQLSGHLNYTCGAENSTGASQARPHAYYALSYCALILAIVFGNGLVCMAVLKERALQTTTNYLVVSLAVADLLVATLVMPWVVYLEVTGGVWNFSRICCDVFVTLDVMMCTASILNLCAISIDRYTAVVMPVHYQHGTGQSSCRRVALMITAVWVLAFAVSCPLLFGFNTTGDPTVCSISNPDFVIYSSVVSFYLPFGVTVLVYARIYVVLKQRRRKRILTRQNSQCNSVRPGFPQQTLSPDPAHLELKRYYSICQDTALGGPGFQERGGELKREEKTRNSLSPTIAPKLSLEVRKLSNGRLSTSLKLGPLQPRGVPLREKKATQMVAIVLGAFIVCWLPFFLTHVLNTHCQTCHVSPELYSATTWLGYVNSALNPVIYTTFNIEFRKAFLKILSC

For `COc1cc(C(C)=O)ccc1OCCCN1CCC(c2noc3cc(F)ccc23)CC1` [Iloperidone, 1-[4-[3-[4-(6-flouro-1,2-benzisoxazol-3-yl)-1-piperidinyl]propoxy]-3-methoxyphenyl]ethanone], the Kd in assay [1] was < 10 nM and 10 to 100 nM; in assay [2], under 10 nM; in assay [3] it was under 10 nM; in assay [4], 10 to 100 nM; in assay [6] it was under 10 nM. Also, the “mode of action at receptors” value in assay [5] is “antagonist”.
